Data: patent US20120329879A1, “BETA-ADRENERGIC RECEPTOR AGONISTS AND USES THEREOF” (THE UNIVERSITY OF TENNESSEE RESEARCH FOUNDATION, priority 2010, published 2012)
“Also recorded” adds a separate entry of the source.

Tests used:
[1] = Plasma levels of Compound 2 after intravenous or topical administration to rats (LC/MS/MS); type: in vivo; conditions: rat
Description: B/PK was characterized following intravenous administration to rats. Following drug administration, blood samples (2-300 μL) were withdrawn from the jugular vein catheter at regular intervals after dosing (5, 15, 30, 45 minutes and 1, 2, 4, 8, 16, and 24 hours) into K3-EDTA anti-coagulated sampling tubes. Plasma was obtained by centrifugation and stored at −80° C. until analysis. The heart, lung and spleen were harvested in order to determine the tissue distribution of Compound 2. Cumulative urinary samples were collected over 24 hours post-dose and stored at −80° C. until analysis. B/PK was characterized following topical administration. Following drug administration to rats, eyes were enucleated, irrigated with saline, and vitreous humor aspirated from the inner region of the vitreous chamber using an 18-gauge needle. Blood samples were obtained simultaneously in order to determine the extent of systemic exposure following topical administration. Vitreous humor and blood samples were obtained at regular intervals after dosing. Time points were determined based upon concentration time profiles obtained following intravenous administration of Compound 2. For data analyses B/PK parameters were derived from the obtained plasma, vitreous humor, urine and feces concentration data by standard non-compartmental analysis. Terminal half-life was determined as the ratio of ln 2 divided by λz, the negative of the slope of the linear regression of the natural log concentration vs. time profile during the terminal phase. Systemic and ocular exposure was determined as plasma or ocular area under the concentration-time curve (AUC) using the trapezoidal rule. Compound 2 concentration determination and metabolite profiling is conducted using a validated LC/MS/MS assay based on the methodology described (14-15). The LC-MS/MS system comprises a Shimadzu HPLC system (Kyoto, Japan), API-4000 Q Trap tandem mass spectrometer (Foster City, Calif., USA) equipped with a turbo ion-spray and a HTC-PAL autosampler (Leap Technologies, Carrboro, N.C., USA).

[2] = Vitreous humor levels of Compound 2 after topical administration to rats; type: in vivo; conditions: rat, 10 mg/kg
Description: For data analyses B/PK parameters were derived from the obtained plasma, vitreous humor, urine and feces concentration data by standard non-compartmental analysis. Terminal half-life was determined as the ratio of ln 2 divided by λz, the negative of the slope of the linear regression of the natural log concentration vs. time profile during the terminal phase. Systemic and ocular exposure was determined as plasma or ocular area under the concentration-time curve (AUC) using the trapezoidal rule. Compound 2 concentration determination and metabolite profiling is conducted using a validated LC/MS/MS assay based on the methodology described (14-15). The LC-MS/MS system comprises a Shimadzu HPLC system (Kyoto, Japan), API-4000 Q Trap tandem mass spectrometer (Foster City, Calif., USA) equipped with a turbo ion-spray and a HTC-PAL autosampler (Leap Technologies, Carrboro, N.C., USA).

[3] = tested on: insulin receptor beta (Tyr 1150/1151); assay: Western blot of phosphorylated to total insulin receptor beta in rat retina; type: in vivo; conditions: diabetic rats, 1 mM eye drops
Description: The other eye from each animal was used for protein analyses for inflammatory markers and insulin receptor signaling. Western blotting was done as described (9). Antibodies used were total insulin receptor beta (1:500, Cellular Signaling, Danvers, Mass.), phosphorylated insulin receptor beta (Tyr 1150/1151, 1:500, Cellular Signaling, Danvers, Mass.), total Akt (1:500, Cellular Signaling, Danvers, Mass.), and phosphorylated Akt (Ser 473, 1:500, Cellular Signaling, Danvers, Mass.). For analyses of the data, mean densitometry values were obtained using the Kodak 2.0 software. The ratio of phosphorylated protein was compared to levels of total protein.

[4] = tested on: PKA; assay: PKA ELISA of retinal lysates after Compound 2 eye drops in diabetic rats; type: in vivo, rat; conditions: topical 1 mM once daily for 4 days, compared with other doses (1 mM to 20 mM), hydrochloride
Description: To determine whether topical application of Compound 2 could reach the retina and elicit response, dose and time course studies were performed. For those studies, animals were made diabetic for 2 months using STZ. For 4 days, rats received a variety of doses of either Compound 2 (1 mM to 20 mM) or PBS once or twice each day. After the 4 days of eye drop treatment to both eyes, the diabetic and control animals were euthanized. Since beta-adrenergic receptor stimulation should increase cyclic adenosine monophosphase production and activate protein kinase A, retinal lysates were processed for a PKA ELISA (MesaCup PKA ELISA, Upstate, Temecula, Calif.). […] At 2 or 8 months, retinas were assessed for diabetes-induced degeneration of retinal cell numbers and retinal thickness (2 months) and for degenerate capillaries (8 months). TNF activity, cleaved caspase 3 and phosphorylation of insulin receptor beta and Akt were assessed at both time points. […]

COc1cc(CCNC[C@H](O)c2ccc(O)c(O)c2)cc(OC)c1OC.Cl (single isomer, unassigned) [Compound 2, 4-[1-hydroxy-2-(1-ethylamino-3-,4-,5-trimethoxyphenyl)ethyl]benzene-1,2-diol hydrochloride]
concentration at 45 min ([1]; Lewis, plasma, over 45 minutes, dose and route not stated): ~6 ng/mL | concentration at 1 h ([1]; plasma, intravenous or topical, 10 mg/kg, limit of detection, read-out: plasma level after 1 hour): < 2.5 ng/mL | time of clearance from plasma ([1]; intravenous, 1 mg/kg): < 1 h | plasma concentration ([1]; intravenous, 10 mg/kg): ~1000 ng/mL | time of clearing from plasma ([1]; intravenous, 10 mg/kg): ≤ 30 min | plasma concentration at the 2 time points with detection ([1]; topical, 10 mg/kg): ~80 ng/mL | detection in plasma after topical delivery ([1]; topical, therapeutic dose 1 mM or 1 mg/kg, hydrochloride): did not result in detectable Compound 2 in plasma; also recorded: below the limits of detection; also recorded: not detected | Plasma concentration at start of decline ([1]; dose and route not stated): about 100 ng/ml | concentration in the vitreous humor within 1 hour [2]: approximately 8 ug/ml | time by which all detectable levels in the vitreous humor are gone [2]: ≤ 2 h | time of peak concentration in the vitreous humor [2]: < 1 h | insulin receptor beta tyrosine phosphorylation, 2 months ([3]; 2 months of diabetes): maintained insulin receptor beta tyrosine phosphorylation at levels similar to control animals | insulin receptor beta tyrosine phosphorylation, 8 months ([3]; 8 months of diabetes): also maintained | PKA activity in the retina [4]: showed the highest increase in PKA activity; also recorded: significantly increased PKA activity in the retina
